Our source for the IC50 values is patent US7998952B2, “Thiolactams and uses thereof” (Millennium Pharmaceuticals, Inc., priority 2008, dated 2011).

Where only a bound is given, the exact number is not on record here.

The experiment deals with T1, recombinant human PLK1[2-369]T210D (Homo sapiens, UniProt P53350, T210D).
T1 construct: recombinant human PLK1[2-369]T210D; Smt (SUMO) fusion partner (N, cleaved yes); host or cells: E. coli
The experiment is described as follows: PLK1 DELFIA Kinase Assay. Format: biochemical. The settings on record: 50 μM ATP, 2 μM peptide substrate, 0.3 nM enzyme, 90 minutes at room temperature. Here is the method:
Recombinant human PLK1 was expressed in E. coli as an N-terminal Smt fusion protein using a proprietary vector (pSGX4) by Structural Genomics (SGX). The fusion partner was removed through cleavage with Ulp1 after an initial purification using a Ni2+ affinity column.
PLK1 DELFIA® Kinase Assay
The enzymatic reaction mixture, with or without PLK inhibitors, was incubated 90 minutes at room temperature before termination with 50 μL of STOP buffer containing 1% BSA, 0.05% Tween20, 100 mM EDTA. 50 μL of the stopped enzyme reaction mixture was transferred to a Neutravidin-coated 384-well plate (Pierce) and incubated at room temperature for 60 minutes. […] The wells were washed and then the bound europium was liberated using 50 μL of Enhancement Solution (Perkin Elmer). Quantification of europium was done using a Pherastar (BMG Labtech)

T1 sequence (P53350 2-369 T210D): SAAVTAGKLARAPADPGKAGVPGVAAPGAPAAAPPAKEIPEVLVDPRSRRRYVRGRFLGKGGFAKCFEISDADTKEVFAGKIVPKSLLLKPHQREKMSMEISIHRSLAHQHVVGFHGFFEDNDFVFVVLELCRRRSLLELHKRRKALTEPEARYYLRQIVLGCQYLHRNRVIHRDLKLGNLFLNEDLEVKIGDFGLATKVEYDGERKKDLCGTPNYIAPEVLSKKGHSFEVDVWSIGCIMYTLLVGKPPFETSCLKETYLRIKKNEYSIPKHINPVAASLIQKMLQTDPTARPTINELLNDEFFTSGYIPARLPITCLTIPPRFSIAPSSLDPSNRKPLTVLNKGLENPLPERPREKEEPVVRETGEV

Usually IC50 stands for the concentration that inhibits the measured activity by half. Turning to `Cc1nc(CCCN(C)C)ccc1Nc1ncc2c(n1)-c1ccc(Cl)cc1NC(=S)C2` [Compound I-16, 9-chloro-2-({6-[3-(dimethylamino)propyl]-2-methylpyridin-3-yl}amino)-5,7-dihydro-6H-pyrimido[5,4-d][1]benzazepine-6-thione], the IC50 was 5 to 25 nM.

`Cc1ncc(CCN(C)C)cc1Nc1ncc2c(n1)-c1ccc(Cl)cc1NC(=S)C2` [Compound I-99, 9-chloro-2-({5-[2-(dimethylamino)-ethyl]-2-methylpyridin-3-yl}amino)-5,7-dihydro-6H-pyrimido[5,4-d][1]benzazepine-6-thione]: the concentration for half-maximal inhibition (IC50) was < 5 nM.

On to `CN1CCN(c2cncc(Nc3ncc4c(n3)-c3ccc(Cl)cc3NC(=S)C4)c2)CC1` [Compound I-107, 9-chloro-2-{[5-(4-methylpiperazin-1-yl)pyridin-3-yl]amino}-5,7-dihydro-6H-pyrimido[5,4-d][1]benzazepine-6-thione], for which the IC50 was < 5 nM.

As for `Cc1nc(C(=O)NC2CCN(C)CC2)ccc1Nc1ncc2c(n1)-c1ccc(C(F)(F)F)cc1NC(=S)C2` [Compound I-123, 6-methyl-N-(1-methylpiperidin-4-yl)-5-{[6-thioxo-9-(trifluoromethyl)-6,7-dihydro-5H-pyrimido[5,4-d][1]benzazepin-2-yl]amino}pyridine-2-carboxamide], the IC50 was 5 to 25 nM.

Turning to `Cc1nc(N(C)C2CCN(C)C2)ccc1Nc1ncc2c(n1)-c1ccc(Cl)cc1NC(=S)C2` (stereo not drawn) [Compound I-3, 9-chloro-2-({2-methyl-6-[methyl(1-methylpyrrolidin-3-yl)amino]pyridin-3-yl}amino)-5,7-dihydro-6H-pyrimido[5,4-d][1]benzazepine-6-thione], the IC50 lay within 5 to 25 nM.

`Cc1nc(N2CCC(N(C)C)CC2)ccc1Nc1ncc2c(n1)-c1ccc(Cl)cc1NC(=S)C2` [Compound I-69, 9-chloro-2-({6-[4-(dimethylamino)piperidin-1-yl]-2-methylpyridin-3-yl}amino)-5,7-dihydro-6H-pyrimido[5,4-d][1]benzazepine-6-thione]: the IC50 is < 5 nM.

With `Cc1nc(NCCCN(C)C)ccc1Nc1ncc2c(n1)-c1ccc(C(F)(F)F)cc1NC(=S)C2` [Compound I-23, 2-[(6-{[3-(dimethylamino)propyl]amino}-2-methylpyridin-3-yl)amino]-9-(trifluoromethyl)-5,7-dihydro-6H-pyrimido[5,4-d][1]benzazepine-6-thione], the IC50 was < 5 nM.

Consider `Cc1nc(N2CCOCC2)ccc1Nc1ncc2c(n1)-c1cc(CCCN(C)C)c(Cl)cc1NC(=S)C2` [Compound I-83, 9-chloro-10-[3-(dimethylamino)propyl]-2-[(2-methyl-6-morpholin-4-ylpyridin-3-yl)amino]-5,7-dihydro-6H-pyrimido[5,4-d][1]benzazepine-6-thione], for which the IC50 lay within 5 to 25 nM.

For the compound `Cc1nc(CCCN(C)C)ccc1Nc1ncc2c(n1)-c1ccc(C(F)(F)F)cc1NC(=S)C2` [Compound I-101, 2-({6-[3-(dimethylamino)propyl]-2-methylpyridin-3-yl}amino)-9-(trifluoromethyl)-5,7-dihydro-6H-pyrimido[5,4-d][1]benzazepine-6-thione], the IC50 is 5 to 25 nM.

On to `Cc1ncc(CCNC2CCCC2)cc1Nc1ncc2c(n1)-c1ccc(Cl)cc1NC(=S)C2` [Compound I-30, 9-chloro-2-({5-[2-(cyclopentylamino)ethyl]-2-methylpyridin-3-yl}amino)-5,7-dihydro-6H-pyrimido[5,4-d][1]benzazepine-6-thione], for which the IC50 is > 25 nM.

As for `Cc1nc2c(cc1Nc1ncc3c(n1)-c1ccc(C(F)(F)F)cc1NC(=S)C3)CCC(N(C)C)C2` (stereo not drawn) [Compound I-122, 2-{[7-(dimethylamino)-2-methyl-5,6,7,8-tetrahydroquinolin-3-yl]amino}-9-(trifluoromethyl)-5,7-dihydro-6H-pyrimido[5,4-d][1]benzazepine-6-thione], the IC50 was 5 to 25 nM.

Turning to `Cc1ccc(Nc2ncc3c(n2)-c2ccc(C(F)(F)F)cc2NC(=S)C3)c(C)n1` [Compound I-4, 2-[(2,6-dimethylpyridin-3-yl)amino]-9-(trifluoromethyl)-5,7-dihydro-6H-pyrimido[5,4-d][1]benzazepine-6-thione], the IC50 was < 5 nM.

In the case of `Cc1ncc(CCCN)cc1Nc1ncc2c(n1)-c1ccc(C(F)(F)F)cc1NC(=S)C2` [Compound I-90, 2-{[5-(3-aminopropyl)-2-methylpyridin-3-yl]amino}-9-(trifluoromethyl)-5,7-dihydro-6H-pyrimido[5,4-d][1]benzazepine-6-thione], the IC50 was < 5 nM.

As to `Cc1nc(N2CCCCC2)ccc1Nc1ncc2c(n1)-c1ccc(Cl)cc1NC(=S)C2` [Compound I-82, 9-chloro-2-[(2-methyl-6-piperidin-1-ylpyridin-3-yl)amino]-5,7-dihydro-6H-pyrimido[5,4-d][1]benzazepine-6-thione], the IC50 was 5 to 25 nM.

Take `Cc1nc(NCCN(C)C)ccc1Nc1ncc2c(n1)-c1ccc(Cl)cc1NC(=S)C2` [Compound I-97, 9-chloro-2-[(6-{[2-(dimethylamino)-ethyl]amino}2-methylpyridin-3-yl)amino]-5,7-dihydro-6H-pyrimido[5,4-d][1]benzazepine-6-thione]: the IC50 lay in the range of 5 to 25 nM.

Regarding `Cc1ccnc(C)c1Nc1ncc2c(n1)-c1ccc(Cl)cc1NC(=S)C2` [Compound I-37, 9-chloro-2-[(2,4-dimethylpyridin-3-yl)amino]-5,7-dihydro-6H-pyrimido[5,4-d][1]benzazepine-6-thione], the IC50 was > 25 nM.

With `Cc1nc(N(C)CCN(C)C)ccc1Nc1ncc2c(n1)-c1ccc(Cl)cc1NC(=S)C2` [Compound I-112, 9-chloro-2-({6-[[2-(dimethylamino)ethyl](methyl)amino]-2-methylpyridin-3-yl}amino)-5,7-dihydro-6H-pyrimido[5,4-d][1]benzazepine-6-thione], the IC50 fell in the range of 5 to 25 nM.

Regarding `Cc1ncc(CCCCN(C)C)cc1Nc1ncc2c(n1)-c1ccc(Cl)cc1NC(=S)C2` [Compound I-89, 9-chloro-2-({5-[4-(dimethylamino)butyl]-2-methylpyridin-3-yl}amino)-5,7-dihydro-6H-pyrimido[5,4-d][1]benzazepine-6-thione], the IC50 was < 5 nM.

In the case of `CCN1CCN(c2cnc(C)c(Nc3ncc4c(n3)-c3ccc(Cl)cc3NC(=S)C4)c2)C[C@@H]1C` [Compound I-66, 9-chloro-2-({5-[(3S)-4-ethyl-3-methylpiperazin-1-yl]-2-methylpyridin-3-yl}amino)-5,7-dihydro-6H-pyrimido[5,4-d][1]benzazepine-6-thione], the IC50 was < 5 nM.

As for `Cc1ncc(CCN2CCOCC2)cc1Nc1ncc2c(n1)-c1ccc(Cl)cc1NC(=S)C2` [Compound I-72, 9-chloro-2-{[2-methyl-5-(2-morpholin-4-ylethyl)pyridin-3-yl]amino}-5,7-dihydro-6H-pyrimido[5,4-d][1]benzazepine-6-thione], the IC50 is < 5 nM.

For `Cc1nc(N(C)CCCN(C)C)ccc1Nc1ncc2c(n1)-c1ccc(C(F)(F)F)cc1NC(=S)C2` [Compound I-88, 2-({6-[[3-(dimethylamino)propyl](methyl)amino]-2-methylpyridin-3-yl}amino)-9-(trifluoromethyl)-5,7-dihydro-6H-pyrimido[5,4-d][1]benzazepine-6-thione], the concentration for half-maximal inhibition (IC50) was < 5 nM.
